Experimental findings from EP0291663A2, “Tert.-butyl amino-3-(phenyl-2'-phenoxy)-1-propanol-2 for the control of heart arrhythmia” (priority 1987, dated 1988) are described below.

What is called LD50 is the dose expected to kill half of the subjects tested. A lower LD50 goes with a more toxic substance.

Where a name gives a salt, the structure may show the parent alone.

A short description of one data set: in vivo. As to conditions: rat.
In the next data set the test system is Hunde-Purkinye Fasern. In words: Electrophysiology on isolated dog Purkinje fibres (Vmax, action potential duration). In kind it is cell-based, Hund. The following applies: for Rate Factor von Vmax: (% of control Vmax at cycle length 2000 mSek.)/(% of control Vmax at cycle length 500 mSek.) at C20Vmax. The text has this:
(§1) Überraschenderweise wurde gefunden, daß das tert.-Butylamino-3-(phenyl-2ʹ-phenoxy)-1-propanol 2 ("Bipranol") der Formel [drawing 1] und seine Salze mit Säuren keine β-sympatholytische Wirkung, sondern eine starke antiarrhythmische Wirkung besitzen. Die elektrophysiologischen und hämodynamischen Wirkungen wurden in vitro an zwei verschiedenen isolierten Herzpräparaten und in vivo (Hund) experimentell untersucht. In Tabelle I sind Ergebnisse pharmakologischer Untersuchungen mit Diprafenon, Propafenon und Bipranol zusammengefaßt.
(§2) C20 Vmax: Konzentration, die Vmax bei einer Zykluslänge von 1000 mSek. um 20 % verringert. C20 CF: Konzentration, die die Kontraktion des Papillarmuskels um 20 % verringert. Rate Factor von Vmax: (% des Kontrollwertes Vmax bei einer Zykluslänge von 2000 mSek.)/(% des Kontrollwertes Vmax bei einer Zykluslänge von 500 mSek.) bei C20Vmax. C20APD95: Die Konzentration, die das APD95 des normalen Aktionspotentials um 20 % verlängert. Sf : Sicherheitsfaktor, errechnet als Rate Factor von Vmax × (C20 CF/C20 Vmax).
(§3) In in vitro-Experimenten an isolierten Herzpräparaten lag die leistungsverzögernde und damit antiarrhythmische Wirkung (C20 Vmax) bei einer Dosis von 2,2 µMol Bipranol. Diese Dosierung entspricht einer antiarrhythmischen wirksamen Dosis von etwa 3 mg/kg bei in vivo Versuchen an Hunden. […] Diese Konzentration ist ungefähr 14 mal höher als für eine antiarrhythmische Wirkung gebraucht wird.

The test system of another data set is β-Rezeptor. In kind it is in vivo, Hund. From the text: Als Parameter zur Bestimmung der β-Rezeptor-blockierenden Wirkung am narkotisierten Hund dienten dP/dt als Maß für die Kontraktionskraft des Herzens, sowie cardiac output (Herzzeitvolumen). […] Im Gegensatz wirken β-Blocker immer negativ-inotrop. […] Die Beobachtungen bei dieser Dosis sind wahrscheinlich Folge einer nicht spezifischen toxischen Wirkung und beruhen nicht auf einer β-sympatolytischen Wirkung.

The test system of the next data set is ventrikuläre Arrhythmien. In kind it is in vivo, Hund. As to conditions: dog. From the text:
Dies wird auch durch in vivo Experimente bestätigt. Die antiarrhythmische Wirksamkeit der Verbindung wurde an Hunden nach H. Glücker et al., Arzneim.Forsch. (Drug Ros.) Bd. 35 (II), 9 (1985) S.1387-1393 geprüft. Die […] wurde mindestens 2 Stunden lang occludiert. Nach dem Auftreten konstanter […] die Verbindungen intravenös injiziert.

Data set [1] deals with Meerschweinchen-Papillarmuskel. In words: Contraction of isolated guinea pig papillary muscle (safety factor, negative inotropy). The following applies: for Sf (Sicherheitsfaktor): Rate Factor von Vmax × (C20 CF/C20 Vmax). In kind it is cell-based.
Description: as §1, §2

Data set [2] relates to Meerschweinchen-Vorhofmuskel. In words: Antagonism of the positive inotropic effect of adrenaline on isolated guinea pig atrial muscle. It is filed as cell-based. As to conditions: highest test concentration 30 µMol. Here is the method:
as §3

[3] abbreviates: anaesthetised dog, up to 30 mg/kg.
[4] abbreviates: concentration that prolongs APD95 of the normal action potential by 20 %.

Take `CC(C)(C)NCC(O)COc1ccccc1-c1ccccc1` (centres unmarked) [Bipranol HCl, tert.-Butylamino-3-(phenyl-2ʹ-phenoxy)-1-propanol-2]: the LD50 in the data set “in vivo” (Ratte (iv)) came out at 11 mg/kg; in the data set “in vivo” (Ratte (oral)), 571 mg/kg.
For the compound `CC(C)(C)NCC(O)COc1ccccc1-c1ccccc1` (centres unmarked) [Bipranol, tert.-Butylamino-3-(phenyl-2ʹ-phenoxy)-1-propanol-2], the “Rate Factor von Vmax” value in the data set with Hunde-Purkinye Fasern is 5. In addition, the IC20 in the data set on Hunde-Purkinye Fasern (Canis lupus familiaris, purkinje, concentration that reduces Vmax by 20 % at cycle length 1000 mSek., isolated heart preparations, read-out: C20 Vmax) turned out to be 2.2 µM. Also, the EC20 in the data set on Hunde-Purkinye Fasern (purkinje, concentration that prolongs APD95 of the normal action potential by 20 %, read-out: C20APD95) was 7.2 µM. Besides, in the data set with β-Rezeptor (setting [3]), the “cardiac output (Herzzeitvolumen)” value was “nicht beeinflußt” and the “dP/dt (Kontraktionskraft des Herzens)” value is “keine negativ-inotrope Wirkung”. For the same compound, the Mortality entry in the data set with β-Rezeptor (in vivo, iv, 30 mg/kg) is “starben alle Hunde”. Moreover, the “Reduktion der ventrikulären Extrazystolen” value in the data set with ventrikuläre Arrhythmien (i.v., 1,6 mg/kg followed by 50 µg/kg/min) is on record as above 90%. Also, in data set [1], the “negativ-inotrope Nebenwirkung” value is given as “keine nennenswerte negativ-inotrope Nebenwirkung” and the “Sf (Sicherheitsfaktor)” value is recorded as 9,09. In data set [2], the “Abschwächung der positiv-inotropen Wirkung von 1 µMol Adrenalin” value is given as “geringe Abschwächung”.
On to `CCC(C)(C)NCC(O)COc1ccccc1C(=O)CCc1ccccc1` (centres unmarked) [Diprafenon], for which, in the data set with Hunde-Purkinye Fasern, the “Rate Factor von Vmax” value is 1,19. The C20APD95 result in the data set on Hunde-Purkinye Fasern (setting [4]) was “nicht erreicht”. Besides, in data set [1], the “negativ-inotrope Nebenwirkung” value was “deutlich negativer inotroper Effekt” and the “Sf (Sicherheitsfaktor)” value is on record as 4,86.
On to `O=C(NCC1CCCCN1)c1cc(OCC(F)(F)F)ccc1OCC(F)(F)F` (centres unmarked) [Flecainid, reference compound], for which, in the data set with ventrikuläre Arrhythmien (i.v., followed by 50 µg/kg/min), the “therapeutische Dosierung” value is 2,4 mg/kg.
Consider `CCCNCC(O)COc1ccccc1C(=O)CCc1ccccc1` (centres unmarked) [Propafenon], for which, in the data set on Hunde-Purkinye Fasern, the “Rate Factor von Vmax” value is on record as 1,08. Further, in the data set on Hunde-Purkinye Fasern (setting [4]), the C20APD95 result was “nicht erreicht”. Further, the “Sf (Sicherheitsfaktor)” value in data set [1] is recorded as 1,55.
